Experimental data: patent publication US6410596B1 (Insmed Incorporated, priority 2000, dated 2002)

What was measured:
[1] = tested on: C57BL/ks diabetic (db/db) mice; experiment: Plasma glucose lowering in diabetic db/db mice; assay type: in vivo; details: for Change in Glucose 6 H: 125 mg/kg q.d. oral (0, 24, 48 h), 6 h after initial dose, Table 8 experiment (FIG. 5)
Protocol: (§1) Genetically altered obese diabetic mice (designated C57BL/ks diabetic or db/db) were purchased from the Jackson Laboratory (Bar Harbor, Me., USA), and served as experimental animals. Male animals between the ages of 8-9 weeks were employed in the studies described here. Animals were housed (4 mice/cage) under standard laboratory conditions at 22° C. and 50% relative humidity, and were maintained on a diet of Purina rodent chow and water ad libitum. Prior to treatment, blood was collected from the tail vein of each a nimal. Mice that had plasma glucose levels between 350 and 600 mg/dL were used. Each treatment group consisted of eight mice that were distributed so that the mean glucose levels were equivalent in each group at the start of the study. Db/db mice received, orally by gavage: the experimental compound administered at 62.5, 125, or 250 mg/kg/day (unless otherwise noted), or metformin administered at […] for 1-3 days, Test compounds were delivered in a liquid vehicle containing 0.25% (w/v) carboxymethyl-cellulose, 1% (v/v) Tween 60® (polyoxyethylene sorbitan monosterate), and up to 10% (v/v) dimethyl sulfoxide (DMSO) in a volume of 10 ml/kg. Blood was sampled from the tail vein at three hours, six, eight, twenty-four, and thirty hours post-administration (the first administration) of the particular compound in non-fasted conditions. Experiments 3-5 also sampled blood at fifty-four hours post-administration (the first administration) of the particular compound in non-fasted conditions. Blood samples were analyzed for plasma glucose levels. Individual body weights and mean food consumption (each cage) were also measured daily.
The isolated test substances were prepared as described previously (vide supra). Metformin (1,1-dimethylbiguanide), carboxymethyl cellulose and Tween 60 were purchased from Sigma Chemical Co. (St. Louis, Mo., USA; catalog #'s D-5035, C-4888, and p-1629, respectively). Plasma glucose levels were determined […] using glucose oxidase (Sigma Chemical Co.; Sigma catalog #315). Significant differences between groups (comparing compound-treated to vehicle-treated) were evaluated using analysis of variance and Fisher's post-hoc test. […]

[2] = Body weights and food consumption in diabetic db/db mice; assay type: in vivo
Protocol: as §1

[3] = 125 mg/kg oral, Table 10 experiment
[4] = 125 mg/kg, Table 10/11 experiment
[5] = 125 mg/kg oral, Table 8 experiment

5-hydroxy-3-methoxy-2-(3-methyl-2-butenyl)stilbene [Compound A]
mean glucose levels declined from the baseline values ([1]; decline, 62.5 mg/kg, 30 h after initial dosing, Tables 4/6 experiment): 40.7 mg/dL | mean glucose levels declined from the baseline values ([1]; decline, 125 mg/kg, 30 h after initial dosing, Tables 4/6 experiment): 69.7 mg/dL | mean glucose levels declined from the baseline values ([1]; decline, 250 mg/kg (also metformin 250 mg/kg), 30 h after initial dosing, Tables 4/6 experiment): 221.4 mg/dL

COc1cc(/C=C/c2ccccc2)c(C(=O)O)c(O)c1CC=C(C)C [Compound C, 3-hydroxy-4-(3-methyl-2-butenyl)-5-methoxystilbene-2-carboxylic acid]
effect on food intake or body weight ([2]; 62.5 mg/kg, 125 mg/kg, and 250 mg/kg, Tables 4/6 experiment): absence of any significantly adverse effect on food intake or body weight | effect on food intake or body weight ([2]; 250 mg/kg, FIG. 2 experiment): absence of any significantly adverse effect on food intake or body weight | food intake versus normal food intake range (5-6 g/day/mouse) ([2]; 250 mg/kg, FIG. 2 experiment): less than that of the normal food intake range | food intake versus normal food intake range (5-6 g/day/mouse) ([2]; 250 mg/kg, Tables 4/6 experiment): less than that of the normal food intake range | hypoglycemic effect relative to vehicle ([1]; 250 mg/kg oral, FIG. 2 experiment): statistically significant reduction in plasma glucose | hypoglycemic effect relative to vehicle ([1]; 62.5, 125, and 250 mg/kg oral, Tables 4/6 experiment): statistically significant reduction in plasma glucose | mean glucose levels declined from the baseline value ([1]; decline, 125 mg/kg, 54 h after initial dosing, Tables 4/6 experiment): 60.4 mg/dL | mean glucose levels declined from the baseline values ([1]; decline, 250 mg/kg (also metformin 250 mg/kg), 54 h after initial dosing, Tables 4/6 experiment): 122.0 mg/dL

COc1cc(/C=C/c2ccccc2)cc(O)c1CC=C(C)C [Compound D, 3-hydroxy-5-methoxy-4-(3-methyl-2-butenyl)stilbene]
Food Intake 0-48 h ([2]; 125 mg/kg, Table 11): 5.7 g/mouse | Body weight (mean) 0 h ([2]; 125 mg/kg, Table 11): 39.3 ± 0.6 g/mouse | Body weight (mean) 48 hr ([2]; 125 mg/kg, Table 11): 39.7 ± 0.7 g/mouse | hypoglycemic effect relative to vehicle [1, 3]: statistically significant reduction in plasma glucose

COc1cc(O)cc(CCc2ccccc2)c1CC=C(C)C [Compound E]
Food Intake 0-48 h ([2]; 125 mg/kg, Table 11): 5.7 g/mouse | Body weight (mean) 0 h ([2]; 125 mg/kg, Table 11): 39.6 ± 0.3 g/mouse | Body weight (mean) 48 hr ([2]; 125 mg/kg, Table 11): 40.2 ± 0.4 g/mouse | effect on food intake or body weight ([2]; 125 mg/kg, Table 8 experiment): absence of any significantly adverse effect on food intake or body weight | effect on food intake or body weight [2, 4]: absence of any significantly adverse effect on food intake or body weight | hypoglycemic effect relative to vehicle [1, 5]: statistically significant reduction in plasma glucose | hypoglycemic effect relative to vehicle [1, 3]: statistically significant reduction in plasma glucose | Change in Glucose 6 H [1]: -2.1 mg/dL

COc1cc(O)cc(CCc2ccccc2)c1CCC(C)C [Compound F]
Food Intake 0-48 h ([2]; 125 mg/kg, Table 11): 5.8 g/mouse | Body weight (mean) 0 h ([2]; 125 mg/kg, Table 11): 39.3 ± 0.8 g/mouse | Body weight (mean) 48 hr ([2]; 125 mg/kg, Table 11): 39.8 ± 0.8 g/mouse | hypoglycemic effect relative to vehicle [1, 3]: statistically significant reduction in plasma glucose

COc1cc(O)cc(CCc2ccccc2)c1 [Compound G, 3-hydroxy-5-methoxybibenzene]
effect on food intake or body weight ([2]; 125 mg/kg, Table 8 experiment): absence of any significantly adverse effect on food intake or body weight | effect on food intake or body weight [2, 4]: absence of any significantly adverse effect on food intake or body weight | hypoglycemic effect relative to vehicle [1, 5]: statistically significant reduction in plasma glucose | Change in Glucose 6 H [1]: 35.0 mg/dL

CN(C)C(=N)N=C(N)N [Metformin, 1,1-dimethylbiguanide, reference compound]
Food Intake 0-48 h ([2]; 250 mg/kg, Table 5): 5.1 g/mouse | Body weight (mean) 0 h ([2]; 250 mg/kg, Table 5): 37.3 ± 0.7 g/mouse | Body weight (mean) 48 hr ([2]; 250 mg/kg, Table 5): 37.2 ± 0.6 g/mouse
